{"source": "patent US20150297579A1", "about": "“TREATMENT OF CANCER WITH POMALIDOMIDE IN A RENALLY IMPAIRED SUBJECT” (priority 2012, published 2015)", "system": "patients with relapsed/refractory multiple myeloma (RRMM)", "assay": "POM+LoDEX vs. HiDEX in RRMM: analysis of patients with moderate renal impairment", "type": "in vivo, human", "description": "Randomization was 2:1 to POM 4 mg (Day 1 to Day 21)+DEX 40 mg (20 mg for patients aged >75 y) qw; or DEX 40 mg (20 mg for patients aged >75 y) (Day 1-Day 4, Day 9-Day 12, and Day 17-Day 20) in a 28-D cycle. Treatment continued until PD or unacceptable adverse event (AE). The primary endpoint was progression-free survival (PFS). Secondary endpoints included overall survival (OS) and AEs. This analysis examined patients with or without moderate RI (CrCl<60 vs.≧60 mL/min).", "data": [{"smiles": "C[C@@H]1C[C@H]2[C@@H]3CCC4=CC(=O)C=C[C@]4(C)[C@@]3(F)[C@@H](O)C[C@]2(C)[C@@]1(O)C(=O)CO", "note": "[HiDEX, (8S,9R,10S,11S,13S,14S,16R,17R)-9-fluoro-11,17-dihydroxy-17-(2-hydroxyacetyl)-10,13,16-trimethyl-6,7,8,9,10,11,12,13,14,15,16,17-dodecahydro-3H-cyclopenta[a]phenanthren-3-one]", "values": [{"measurement": "Median OS (mo)", "setting": "CrCl <60 mL/min (moderate RI)", "value": 4.6, "unit": "mo"}, {"measurement": "Median PFS (mo)", "setting": "CrCl <60 mL/min (moderate RI)", "value": 1.6, "unit": "mo"}, {"measurement": "Median OS (mo)", "setting": "CrCl ≧60 mL/min", "value": 9.2, "unit": "mo"}, {"measurement": "Median PFS (mo)", "setting": "CrCl ≧60 mL/min", "value": 1.8, "unit": "mo"}, {"measurement": "Discontinuation due to AE", "setting": "moderate RI", "value": 5, "unit": "%"}, {"measurement": "Gr 3/4 AE: anemia", "setting": "moderate RI", "value": 34, "unit": "%"}, {"measurement": "Gr 3/4 AE: infection", "setting": "moderate RI", "value": 24, "unit": "%"}, {"measurement": "Gr 3/4 AE: neutropenia", "setting": "moderate RI", "value": 15, "unit": "%"}, {"measurement": "Discontinuation due to AE", "setting": "no moderate RI", "value": 7, "unit": "%"}, {"measurement": "Gr 3/4 AE: anemia", "setting": "normal renal function", "value": 26, "unit": "%"}, {"measurement": "Gr 3/4 AE: infection", "setting": "normal renal function", "value": 23, "unit": "%"}, {"measurement": "Gr 3/4 AE: neutropenia", "setting": "normal renal function", "value": 15, "unit": "%"}]}]}
